Data on two compounds can be found in patent publication US8466202B2, “Anthracenedione compounds” (Sunten Phytotech Co., Ltd., priority 2006, dated 2013).

Molecules are shown by their SMILES. Several values for one entry are separate records, joined by “and”; a condition that tells them apart may be missing. Identical values can stand only once.

For series [1], the system named is healthy male S.D. rats. Nature of the series: Feces production in rats given Rheum palmatum Linne extracts for three weeks (Example 2). In kind it is in vivo, rat. As to conditions: oral everyday, Rheum palmatum crude extract 500, Bisacodyl 1.75, Sennosides 3.55, STD03 180, STD05-1 12, STD05-2 24 mg/kg; for Water content: feces; for Pellet count / Wet Weight: total of the six rats in the group. The procedure: The laxative activities by Rheum palmatum Linne extracts were studied. A crude Rheum palmatum Linne extract and STD05 were obtained from SunTen Phytotech Co., Ltd. (Jhonghe City, Taiwan). Commercial available laxatives, Through® (Chung Mei Pharmaceutical Co., Ltd.; active ingredient: Sennosides 20 mg, as Sennosides A+B 12 mg, Lot. 009A 051) and Dulcolax® (Boehringer Ingelheim, Taiwan, Ltd.; active ingredient: Bisacodyl; Lot. 480-4942) were obtained from a pharmacy.
Forty-two healthy male S.D. rats (8 weeks old; National Laboratory Animal Center, Taiwan) were divided into seven groups (six in each) and tested for the laxative activity by Rheum palmatum Linne extracts. The rats in one group were not fed with any extract or drug and used as negative controls. The rats in the second and third group were given Sennosides (3.55 mg/kg) and Bisacodyl (1.75 mg/kg), respectively, and used as positive controls. The Rats in the other four groups were given Rheum palmatum Linne crude extract (500 mg/kg), filtered crude extract STD03 (180 mg/kg), and STD05 (STD05-1: 12 mg/kg and STD05-2: 24 mg/kg), respectively. All substances were administered orally everyday for three weeks.
The experiments were carried out under conditions in which temperature, humidity, and lighting were all controlled. Each rat was fed standard rat food and water ad libitum in housing that provided a 12-hour light/dark cycle. The rats were divided into seven groups according to the body weights.
The first part of the experiment studied the effect of the above-mentioned extracts on feces production. During the three-week period, any rat that appeared dying was euthanized, dissected, and studied to check for any illness or injures. Any complications or illness were analyzed by H&E stains to determine the cause of death and to allow for dosage reconsiderations for future experiments.
During this period, the body weights of the rats were weighed each day and recorded. Feces of each rat were studied three times during the period for any unusual observations. Specifically, the amounts of feces were weighed on Days 11, 15, 18, and 21. During observation, each rat was placed in a metabolic cage. Feces were collected every twenty-four hours. The number of collected feces pellets was counted, and the pellets' shapes and colors were evaluated. After weighing the moist feces, they were dried in an oven at 100° C. for twenty-four hours. The water content from the feces was calculated according to the following formula: Water content percentage=[(wet weight−dry weight)/wet weight]×100%.
Intestine motility data were expressed as mean±SD. Data were analyzed using the one-way ANOVA method. For comparison within the groups, a Post hoc Comparison was applied. In both feces production and intestine motility analyses, p<0.05 indicates significant differences. For the feces production tests, the data for each group and each time point represent the total wet weight or pellet count of the six rats in the group.

The nature of series [2]: Body weight of rats over the 10-day period (Example 3). As to conditions: Group II, Sennosides 3.35 mg/kg/day, STD05 24 mg/kg, ARE 24 mg/kg, Chrysophanol 4 mg/kg, Emodin 4 mg/kg. Also on record: Body weight Difference: unit not given here. The format is in vivo, rat. The method, then:
The aforementioned STD05 and compounds were studied for the laxative activity. Healthy male S.D. rats (BioLASCO Taiwan Co. Ltd.) were divided into three groups (i.e., Groups 1-3) in this study. In Group I, 6 rats, as negative control, were given no treatment; 6 rats, as positive control, were given 3.35 mg/kg/day Sennosides (Through®, Chung Mei Pharmaceutical Co., Ltd; Active ingredient: Sennosides 20 mg, as sennoside A+B 12 mg, Lot. 012F 006); 6 rats were treated STD05 (8 mg/kg/day); 6 rats were treated with an extract fraction containing aloe-emodin, rhein, and emodin (“ARE”, 8 mg/kg/day); 6 rats were treated with Aloe-emodin (4 mg/kg/day); and 6 rats were treated with Rhein (4 mg/kg/day). In Group II, 6 rats, as negative control, were given no treatment; 6 rats, as positive control, were given 3.35 mg/kg/day Sennosides; 6 rats were treated STD05 (24 mg/kg/day); 6 rats were treated with an extract fraction containing ARE (24 mg/kg/day); 6 rats were treated with Chrysophanol (4 mg/kg/day); and 6 rats were treated with Emodin (4 mg/kg/day). In Group III, 6 rats, as negative control, were given no treatment; 6 rats were treated with Physcoin (4 mg/kg/day); and 6 rats were treated with a mixture of chrysophanol and physcion (8 mg/kg/day, “CP”). The experiments were carried out under controlled temperature, humidity, and lighting. Each rat was fed standard rat food and water ad libitum in housing that provided a 12-hour light/dark cycle. For statistical comparison, all of the rats were divided into six sets according to the body weights. The first part of the experiment studied the effect of the test substances on feces production. During the 10-day period, the body weights of the rats were weighed each day and recorded. The rat's feces was also studied three times in the manner described above during the 10-day period for any unusual observations. During the 10-day period, any rat that appeared dying was euthanized, dissected, and examined for any illness or injury. Any complications or illness were analyzed by H&E stains to determine the cause of death and to allow for dosage reconsiderations for future experiments. Summarized in Table 4 below are the effects of the compounds, mixtures, or extracts on the rat body weights.

In series [3] the test system is healthy male S.D. rats. Nature of the series: Feces production in rats over the 10-day period (Example 3). In kind it is in vivo, rat. Particulars: for increase of the feces amount (wet weight): vs control of the same group; for Pellet count / Water content / Wet Weight: Group II, Sennosides 3.35 mg/kg, STD05 24 mg/kg, ARE 24 mg/kg, Chrysophanol 4 mg/kg, Emodin 4 mg/kg. The procedure:
During this period, the body weights of the rats were weighed each day and recorded. Feces of each rat were studied three times during the period for any unusual observations. Specifically, the amounts of feces were weighed on Days 11, 15, 18, and 21. During observation, each rat was placed in a metabolic cage. Feces were collected every twenty-four hours. The number of collected feces pellets was counted, and the pellets' shapes and colors were evaluated. After weighing the moist feces, they were dried in an oven at 100° C. for twenty-four hours. The water content from the feces was calculated according to the following formula: Water content percentage=[(wet weight−dry weight)/wet weight]×100%. (I) The results are summarized in Table 2 below: The aforementioned STD05 and compounds were studied for the laxative activity. Healthy male S.D. rats (BioLASCO Taiwan Co. Ltd.) were divided into three groups (i.e., Groups 1-3) in this study. In Group I, 6 rats, as negative control, were given no treatment; 6 rats, as positive control, were given 3.35 mg/kg/day Sennosides (Through®, Chung Mei Pharmaceutical Co., Ltd; Active ingredient: Sennosides 20 mg, as sennoside A+B 12 mg, Lot. 012F 006); 6 rats were treated STD05 (8 mg/kg/day); 6 rats were treated with an extract fraction containing aloe-emodin, rhein, and emodin (“ARE”, 8 mg/kg/day); 6 rats were treated with Aloe-emodin (4 mg/kg/day); and 6 rats were treated with Rhein (4 mg/kg/day). In Group II, 6 rats, as negative control, were given no treatment; 6 rats, as positive control, were given 3.35 mg/kg/day Sennosides; 6 rats were treated STD05 (24 mg/kg/day); 6 rats were treated with an extract fraction containing ARE (24 mg/kg/day); 6 rats were treated with Chrysophanol (4 mg/kg/day); and 6 rats were treated with Emodin (4 mg/kg/day). In Group III, 6 rats, as negative control, were given no treatment; 6 rats were treated with Physcoin (4 mg/kg/day); and 6 rats were treated with a mixture of chrysophanol and physcion (8 mg/kg/day, “CP”). The experiments were carried out under controlled temperature, humidity, and lighting. Each rat was fed standard rat food and water ad libitum in housing that provided a 12-hour light/dark cycle. For statistical comparison, all of the rats were divided into six sets according to the body weights. The first part of the experiment studied the effect of the test substances on feces production. During the 10-day period, the body weights of the rats were weighed each day and recorded. The rat's feces was also studied three times in the manner described above during the 10-day period for any unusual observations. During the 10-day period, any rat that appeared dying was euthanized, dissected, and examined for any illness or injury. Any complications or illness were analyzed by H&E stains to determine the cause of death and to allow for dosage reconsiderations for future experiments. Summarized in Table 4 below are the effects of the compounds, mixtures, or extracts on the rat body weights. During the period, feces produced by the rats were studied days 1, 5, and 10 in the same manner described above. […] In the 10-day period, the rats administered with STD05 produced more feces (wet weight) that the rats in the control group by about 32%. In addition, the pellet counts for the rats administered with STD05 were greater than those for the control rats by about 20%. Furthermore, STD05 increased the water content in feces by about 18%. The same experiments were conducted on rats administered with physcion, aloe-emodin, chrysophanol, rhein, emodin, CP, and ARE.

Series [4] is described as follows: Enteric absorption rate (statement, no method given). As to conditions: general statement.
Series [5] is described as follows: Side effects compared with Rheum palmatum Linne herb extracts (statement, no method given). Particulars: general statement.

For the compound `CC(=O)Oc1ccc(C(c2ccc(OC(C)=O)cc2)c2ccccn2)cc1` [Bisacodyl], the Water content with healthy male S.D. rats [1] (Day 11) is given as 64.45%; with healthy male S.D. rats [1] (Day 15) it was 68.34%; with healthy male S.D. rats [1] (Day 18) it was 66.65%; in the series on healthy male S.D. rats [1] (Day 21) it was 68.02%. The Pellet count in the series on healthy male S.D. rats [1] (Day 11) was 116; with healthy male S.D. rats [1] (Day 15), 110; in the series with healthy male S.D. rats [1] (Day 18) it was 81; in the series with healthy male S.D. rats [1] (Day 21), 108. In addition, the “Wet Weight” value with healthy male S.D. rats [1] (Day 11) was 33.84 g; with healthy male S.D. rats [1] (Day 15), 41.64 g; with healthy male S.D. rats [1] (Day 18) it was 30.14 g; in the series on healthy male S.D. rats [1] (Day 21), 40.13 g.
Compound `Cc1cc(O)c2c(c1)C(=O)c1cccc(O)c1C2=O` [Chrysophanol, chrysophanol] yielded a Body weight Difference, Mean in series [2] (group mean, Day 10 minus Day 1) of 33 g. Moreover, in series [2] (group mean), the Body weight End Day 10, Mean was 376 g. In addition, the “Body weight Difference” value in series [2] (individual rats, Day 10 minus Day 1) was 40 and 20 and 30 (2×) and 25 and 50. Besides, the “Body weight End Day 10” value in series [2] (individual rats) is 370 (3×) and 385 and 350 and 410. In the series with healthy male S.D. rats [3] (Day 1), the “increase of the feces amount (wet weight)” value was 19%, the Pellet count worked out at 128, the Water content is recorded as 50.82% and the “Wet Weight” value amounted to 28.86 g. Besides, in the series with healthy male S.D. rats [3] (Day 5), the “increase of the feces amount (wet weight)” value is recorded as 16%, the Pellet count came to 119, the Water content stood at 51.22% and the “Wet Weight” value is 26.48 g. In the series with healthy male S.D. rats [3] (Day 10), the “increase of the feces amount (wet weight)” value is reported as 14%, the Pellet count is 127, the Water content is on record as 56.52% and the “Wet Weight” value is 28.83 g. Also, in the series on healthy male S.D. rats [3] (average of Days 1, 5 and 10), the “increase of the feces amount (wet weight), average” value is given as 16%. For the same compound, the enteric absorption rate result in series [4] is “very low”. Besides, the “side effects often seen in herb extracts (cramping, bloating, gas, and diarrhea)” value in series [5] is “do not have the side effects”.
